Converted amounts (≈) assume the structure as drawn.
Legend:
[1] = system: Escherichia coli (E. coli) BAS849; experiment: Antibacterial activity, microbroth dilution MIC (Table 1); type: cell-based; details: microbroth dilution, super sensitive Gram-negative E. coli BAS849, read-out: MIC, BAS849
In short: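 Microbroth dilution was used. MIC, in μg/mL, is the lowest drug concentration preventing macroscopically visible growth under the test conditions.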

[2] = system: Staphylococcus aureus (S. aureus) 29213; experiment: as above; type: cell-based; details: microbroth dilution, Gram-positive S. aureus 29213, read-out: MIC, 29213
In short: (§1)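 Values are MICs (μg/mL): the smallest drug amount at which macroscopically visible bacterial growth is absent under assay conditions, from a microdilution method in broth.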

E. coli 25922 = experiment: as above; type: cell-based, Escherichia coli; details: Escherichia coli; microbroth dilution; control Gram-negative E. coli 25922 strain; read-out: MIC, 25922
In short: as §1

E. coli LZ3111 = experiment: Antibacterial activity, MIC, quinolone resistant strain (Table 2); type: cell-based; details: Escherichia coli, LZ3111, read-out: MIC LZ3111
In short: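 MIC values (μg/mL) came from a microbroth dilution assay, scored as the lowest drug concentration at which no growth was visible by eye.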

[3] = system: Acinetobacter baumannii (A. baumannii) BAA747; experiment: Antibacterial activity, MIC (Table 4); type: cell-based; details: A. baumannii BAA747, read-out: MIC, BAA747
In short: (§2)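 Activity was measured by microbroth dilution. The MIC, in μg/mL, is the lowest drug concentration that prevents macroscopically visible growth under the test conditions. The resistant strains are multi-drug resistant clinical isolates.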

[4] = system: Klebsiella pneumoniae (K. pneumoniae) 35657; experiment: Antibacterial activity, MIC (Table 4); type: cell-based; details: K. pneumoniae 35657, read-out: MIC, 35657
In short: as §2

A. baumannii MXX2240 = experiment: Antibacterial activity, MIC, resistant strain (Table 4); type: cell-based; details: Acinetobacter baumannii, MXX2240; resistant A. baumannii MMX2240, multi-drug resistant clinical isolate; read-out: MIC, MMX2240
In short: as §2

K. pneumoniae MXX1232 = experiment: as above; type: cell-based; details: Klebsiella pneumoniae, MXX1232; resistant K. pneumoniae MMX1232, multi-drug resistant clinical isolate; read-out: MIC, MMX1232
In short: as §2

[5] = system: Pseudomonas aeruginosa (P. aeruginosa) 27853; experiment: Antibacterial activity, MIC (Table 5); type: cell-based; details: P. aeruginosa 27853, read-out: MIC, 27853
In short: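 Values are MICs in μg/mL, read as the lowest concentration at which no growth is visible by eye. They were determined by a microbroth dilution method.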

With `CCc1c(-c2ccc3c4c([nH]c3c2)CCN(CC)C4)[nH]c(=O)c(C(=O)O)c1O` [Cpd 452, 5-ethyl-6-(2-ethyl-2,3,4,5-tetrahydro-1H-pyrido[4,3-b]indol-7-yl)-4-hydroxy-2-oxo-1,2-dihydropyridine-3-carboxylic acid] the MIC [1] was less than 1 µg/mL, the MIC [2] was 12.5 to 150 µg/mL (≈ 32.8 to 393 µM) and the MIC (E. coli 25922) was less than 1 µg/mL. The MIC (E. coli LZ3111) was 12.5 to 150 µg/mL (≈ 32.8 to 393 µM), the MIC [3] was 12.5 to 150 µg/mL (≈ 32.8 to 393 µM) and the MIC [4] was 1 to 3.5 µg/mL (≈ 2.62 to 9.18 µM). The MIC (A. baumannii MXX2240) was 12.5 to 150 µg/mL (≈ 32.8 to 393 µM), the MIC (K. pneumoniae MXX1232) was 12.5 to 150 µg/mL (≈ 32.8 to 393 µM) and the MIC [5] was 12.5 to 150 µg/mL (≈ 32.8 to 393 µM).

For `Cc1c(-c2ccc3c(c2)cc(CNCCO)n3C)[nH]c(=O)c(C(=O)O)c1O` [Cpd 350, 4-hydroxy-6-(2-((2-hydroxyethylamino)methyl)-1-methyl-1H-indol-5-yl)-5-methyl-2-oxo-1,2-dihydropyridine-3-carboxylic acid], the MIC [1] was 3.5 to 12.5 µg/mL (≈ 9.42 to 33.7 µM), the MIC [2] was 12.5 to 150 µg/mL (≈ 33.7 to 404 µM) and the MIC (E. coli 25922) was 12.5 to 150 µg/mL (≈ 33.7 to 404 µM). For the same compound, the MIC (E. coli LZ3111) was 3.5 to 12.5 µg/mL (≈ 9.42 to 33.7 µM), the MIC [3] was 12.5 to 150 µg/mL (≈ 33.7 to 404 µM) and the MIC [4] was 12.5 to 150 µg/mL (≈ 33.7 to 404 µM). It also gave an MIC (A. baumannii MXX2240) of 12.5 to 150 µg/mL (≈ 33.7 to 404 µM), an MIC (K. pneumoniae MXX1232) of 12.5 to 150 µg/mL (≈ 33.7 to 404 µM) and an MIC [5] of 12.5 to 150 µg/mL (≈ 33.7 to 404 µM).

`C=CC1C(O)=C(C(=O)O)C(=O)NC1c1ccc2c(ccn2C)c1` (stereo not drawn) [Cpd 375, 4-hydroxy-6-(1-methyl-1H-indol-5-yl)-2-oxo-5-vinyl-1,2,5,6-tetrahydropyridine-3-carboxylic acid] was tested, and the MIC [1] was less than 1 µg/mL, the MIC [2] was 12.5 to 150 µg/mL (≈ 40 to 480 µM) and the MIC (E. coli 25922) was 12.5 to 150 µg/mL (≈ 40 to 480 µM). The MIC (E. coli LZ3111) was 1 to 3.5 µg/mL (≈ 3.2 to 11.2 µM), the MIC [3] was 12.5 to 150 µg/mL (≈ 40 to 480 µM) and the MIC [4] was 12.5 to 150 µg/mL (≈ 40 to 480 µM). It also gave an MIC (A. baumannii MXX2240) of 1 to 3.5 µg/mL (≈ 3.2 to 11.2 µM), an MIC (K. pneumoniae MXX1232) of 12.5 to 150 µg/mL (≈ 40 to 480 µM) and an MIC [5] of 12.5 to 150 µg/mL (≈ 40 to 480 µM).

Compound `CCCNCc1cc2cc(-c3[nH]c(=O)c(C(=O)O)c(O)c3C)ccc2n1C` [Cpd 352, 4-hydroxy-5-methyl-6-(1-methyl-2-((propylamino)methyl)-1H-indol-5-yl)-2-oxo-1,2-dihydropyridine-3-carboxylic acid] has an MIC [1] of less than 1 µg/mL, an MIC [2] of 12.5 to 150 µg/mL (≈ 33.8 to 406 µM) and an MIC (E. coli 25922) of 3.5 to 12.5 µg/mL (≈ 9.47 to 33.8 µM). For the same compound, the MIC (E. coli LZ3111) was less than 1 µg/mL, the MIC [3] was 3.5 to 12.5 µg/mL (≈ 9.47 to 33.8 µM) and the MIC [4] was 1 to 3.5 µg/mL (≈ 2.71 to 9.47 µM). For the same compound, the MIC (A. baumannii MXX2240) was 1 to 3.5 µg/mL (≈ 2.71 to 9.47 µM), the MIC (K. pneumoniae MXX1232) was 12.5 to 150 µg/mL (≈ 33.8 to 406 µM) and the MIC [5] was 12.5 to 150 µg/mL (≈ 33.8 to 406 µM).

Compound `CCOc1c(-c2ccc3c(ccn3C)c2)[nH]c(=O)c(C(=O)O)c1O` [Cpd 378, 4-hydroxy-5-ethoxy-6-(1-methyl-1H-indol-5-yl)-2-oxo-1,2-dihydropyridine-3-carboxylic acid] has an MIC [1] of 3.5 to 12.5 µg/mL (≈ 10.7 to 38.1 µM), an MIC [2] of 12.5 to 150 µg/mL (≈ 38.1 to 457 µM) and an MIC (E. coli 25922) of 12.5 to 150 µg/mL (≈ 38.1 to 457 µM). For the same compound, the MIC (E. coli LZ3111) was 3.5 to 12.5 µg/mL (≈ 10.7 to 38.1 µM), the MIC [3] was 12.5 to 150 µg/mL (≈ 38.1 to 457 µM) and the MIC [4] was 12.5 to 150 µg/mL (≈ 38.1 to 457 µM). For the same compound, the MIC (A. baumannii MXX2240) was 3.5 to 12.5 µg/mL (≈ 10.7 to 38.1 µM), the MIC (K. pneumoniae MXX1232) was 12.5 to 150 µg/mL (≈ 38.1 to 457 µM) and the MIC [5] was 12.5 to 150 µg/mL (≈ 38.1 to 457 µM).

`CCc1cc(C(=O)O)c(=O)[nH]c1-c1ccc2c(c1)cc(CN(C)Cc1ccccc1)n2C` [Cpd 121, 6-(2-((benzyl(methyl)amino)methyl)-1-methyl-1H-indol-5-yl)-5-ethyl-2-oxo-1,2-dihydropyridine-3-carboxylic acid] was tested, and the MIC [1] was less than 1 µg/mL, the MIC [2] was 3.5 to 12.5 µg/mL (≈ 8.15 to 29.1 µM) and the MIC (E. coli 25922) was 1 to 3.5 µg/mL (≈ 2.33 to 8.15 µM). For the same compound, the MIC (E. coli LZ3111) was 12.5 to 150 µg/mL (≈ 29.1 to 349 µM), the MIC [3] was 1 to 3.5 µg/mL (≈ 2.33 to 8.15 µM) and the MIC [4] was 3.5 to 12.5 µg/mL (≈ 8.15 to 29.1 µM). It also gave an MIC (A. baumannii MXX2240) of 12.5 to 150 µg/mL (≈ 29.1 to 349 µM), an MIC (K. pneumoniae MXX1232) of 12.5 to 150 µg/mL (≈ 29.1 to 349 µM) and an MIC [5] of 12.5 to 150 µg/mL (≈ 29.1 to 349 µM).

`Cn1ccc2cc(-c3[nH]c(=O)c(C(=O)O)c(O)c3Cl)ccc21` [Cpd 376, 5-chloro-4-hydroxy-6-(1-methyl-1H-indol-5-yl)-2-oxo-1,2-dihydropyridine-3-carboxylic acid] was tested, and the MIC [1] was 3.5 to 12.5 µg/mL (≈ 11 to 39.2 µM), the MIC [2] was 12.5 to 150 µg/mL (≈ 39.2 to 471 µM) and the MIC (E. coli 25922) was 12.5 to 150 µg/mL (≈ 39.2 to 471 µM). For the same compound, the MIC (E. coli LZ3111) was 12.5 to 150 µg/mL (≈ 39.2 to 471 µM), the MIC [3] was 12.5 to 150 µg/mL (≈ 39.2 to 471 µM) and the MIC [4] was 12.5 to 150 µg/mL (≈ 39.2 to 471 µM). The MIC (A. baumannii MXX2240) was 12.5 to 150 µg/mL (≈ 39.2 to 471 µM), the MIC (K. pneumoniae MXX1232) was 12.5 to 150 µg/mL (≈ 39.2 to 471 µM) and the MIC [5] was 12.5 to 150 µg/mL (≈ 39.2 to 471 µM).
